Patent US9266829B2, “Quinone compounds and their uses for the treatment of cancer” (Onco-NX Limited, priority 2012, dated 2016)
Converted amounts (≈) assume the structure as drawn. “And” between values parts separate entries of the source, which are not always exact repeats. Equal entries are not always repeated. Where two headings read alike, the source gives them in different places.

Columns and labels:
MDA NQ01 = assay: IC50 by MTT assay on NQ01 cells; type: cell-based, human; details: for MDA468 to NQ01 differential: ratio of IC50 values
MDA468 = assay: IC50 by MTT assay on MDA468 cells; type: cell-based, human
physchem [1] = type: physicochemical; details: buffer, pH 7
physchem [2] = type: physicochemical; details: buffer, pH 7.4
Method: The stability of esters and their hydrolysis products was measured in solution. (50 μM Es5 in Tris buffer (0.1 mol dm^−3) at pH 7.4). Samples were taken at timed intervals up to 24 hours and analysed by HPLC. The detection wavelength was 330 nm. Chromatographic analysis was carried out by isocratic elution with 30:70 MeOH: Tris buffer (0.1 mol dm^−3, pH 7.4), at 1 ml min^−1. The chromatographic separation of the drug was achieved using a Hypersil ODS column with 250 mm×4.6 mm I.D.

H460 NSCLC = assay: In vivo hollow fibre assay, H460; details: fibres at s.c. site; i.p. dosing days 3-6; nude mice
Method: (§1) The activity of Es5 (4.65) was evaluated in vivo against 3 cancer cell lines H460, MDA-MB-468-NQ01 and MDA-MB-468-MOCK using the in vivo hollow fibre assay (HFA), with fibres implanted at both intraperitoneal (i.p.) and subcutaneous (s.c.) sites. Es5 and the control agent Doxorubicin were administered as multiple doses by intraperitoneal injection (i.p.) on days 3, 4, 5 & 6 at 0.5 mg/kg/day and 2.5 mg/kg/day respectively.
(§2) Three human tumour cell lines were selected for analysis: H460 NSCLC (from ICT) and two breast carcinoma lines MDA-MB-468-NQ01 and MDA-MB-468-MOCK (both supplied by Onco-NX). Cells were cultured in RPMI 1640 cell culture medium supplemented with 1 mM sodium pyruvate, 2 mM L-glutamine and 10% foetal bovine serum (all from Sigma), and maintained as monolayer cultures at 37° C. in a humidified 5% CO2 environment.
(§3) Female Balb/C immunodeficient nude mice aged 6-8 weeks were used (Harlan UK, Blackthorn, UK). Mice were kept in cages housed in isolation cabinets in an air-conditioned room with regular alternating cycles of light and darkness. They received Teklad 2018 diet (Harlan, Blackthorn, UK) and water ad libitum. All animal procedures were carried out under a project licence issued by the UK Home Office and UKCCCR guidelines were followed throughout.
Cells were loaded into sterilised colour-coded PVDF Spectra/Por hollow fibres (HF) (Spectrum Medical Inc, Houston, Tex., USA). Briefly cells were harvested and resuspended in cell culture medium at the required cell density. This preparation was then loaded into the HF and the ends were clamped and heat-sealed. […]
(§4) Mice were sacrificed on day 7 post-implantation, fibres removed, and cell survival analysed using a modified MTT assay, comparing absorbances seen for the treated groups with the corresponding untreated control group. […]

MDA-MB-468-NQ01 = assay: In vivo hollow fibre assay, MDA-MB-468-NQ01; parameters: species or system mice
Method: as §1, §2, §3
Cells were loaded into sterilised colour-coded PVDF Spectra/Por hollow fibres (HF) (Spectrum Medical Inc, Houston, Tex., USA). Briefly cells were harvested and resuspended in cell culture medium at the required cell density. This preparation was then loaded into the HF and the ends were clamped and heat-sealed. The HF was then cut into 1.5 cm lengths which were again heat-sealed at both ends, and then transferred to 6-well plates containing medium before implantation for the in vivo experiments, or were incubated at 37° C. in a humidified 5% CO2 environment for varying times before processing using the modified MTT assay as described below.
For the in vivo experiments, under brief inhalation anaesthesia (2% isoflurane), one loaded hollow fibre for each of the cell lines was transplanted intraperitoneally or subcutaneously on the dorsal flank of each mouse and the mice were allowed to recover. Each group consisted of 6 mice and the implantation day was termed ‘day 0’.
For assessment of the therapeutic response of Es5 (4.65), on days 3, 4, 5 & 6 mice were treated with Es5 (4.65) at 0.5 mg/kg/day or Doxorubicin at 2.5 mg/kg/day.
Mice were sacrificed on day 7 post-implantation, fibres removed, and cell survival analysed using a modified MTT assay, comparing absorbances seen for the treated groups with the corresponding untreated control group. Statistical analysis was carried out using a Student's t-test.

MDA-MB-468-MOCK = assay: In vivo hollow fibre assay, MDA-MB-468-MOCK; details: fibres at s.c. site; i.p. dosing days 3-6; nude mice
Method: as §1, §2
Female Balb/C immunodeficient nude mice aged 6-8 weeks were used (Harlan UK, Blackthorn, UK). Mice were kept in cages housed in isolation cabinets in an air-conditioned room with regular alternating cycles of light and darkness. They received Teklad 2018 diet (Harlan, Blackthorn, UK) and water ad libitum. […]
as §4

recombinant human DTD = recombinant human DTD (Homo sapiens, UniProt P15559); details: Beall et al.; Ross et al.; cited from earlier work
[3] = Stability in aqueous and organic solution
[4] = cited from earlier work
NQ01 cells = assay: Combination index at IC50 with other anti-cancer agents in NQ01 cells; type: cell-based, human
[5] = Solubility (aqueous and organic)
MDA468 cells = assay: Combination index at IC50 with other anti-cancer agents in MDA468 cells; type: cell-based, human

recombinant human DTD, sequence (P15559 whole entry): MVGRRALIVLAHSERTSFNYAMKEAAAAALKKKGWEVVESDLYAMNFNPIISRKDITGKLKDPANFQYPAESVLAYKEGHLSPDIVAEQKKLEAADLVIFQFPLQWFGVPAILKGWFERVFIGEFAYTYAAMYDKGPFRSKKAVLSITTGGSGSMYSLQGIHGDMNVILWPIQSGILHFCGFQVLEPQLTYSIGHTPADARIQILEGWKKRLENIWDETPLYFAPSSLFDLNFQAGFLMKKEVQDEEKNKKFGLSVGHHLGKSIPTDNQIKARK

O=c1[nH]cc(F)c(=O)[nH]1 [5-fluorouracil]
IC50 (MDA NQ01; Homo sapiens, MTT assay): 12000 nM | IC50 (MDA468; Homo sapiens): 7960 nM

N.N.[Cl][Pt][Cl] [Cisplatin]
IC50 (MDA NQ01; MTT assay): 570 nM | IC50 (MDA468): 675 nM

[Cl][Co][Cl] [Cobalt chloride]
IC50 (MDA NQ01; MTT assay): 54000 nM | IC50 (MDA468): 35000 nM

COc1cccc(C(=O)OCC2=C(N3CC3)C(=O)C(C)=C(N3CC3)C2=O)c1OC [Compound 4-05]
half-life (physchem [1]): < 10 min

COc1ccc(OC)c(C(=O)OCC2=C(N3CC3)C(=O)C(C)=C(N3CC3)C2=O)c1 [Compound 4-07]
half-life (physchem [1]): < 20 min

COc1ccc(C(=O)OCC2=C(N3CC3)C(=O)C(C)=C(N3CC3)C2=O)cc1OC [Compound 4-09]
half-life (physchem [1]): < 30 min

COc1ccc(C(=O)OCC2=C(N3CC3)C(=O)C(C)=C(N3CC3)C2=O)c(OC)c1 [Compound 4-10]
half-life (physchem [1]): < 30 min

COc1cccc(OC)c1C(=O)OCC1=C(N2CC2)C(=O)C(C)=C(N2CC2)C1=O [Compound 4-11]
half-life (physchem [1]): < 30 min

COc1cc(C(=O)OCC2=C(N3CC3)C(=O)C(C)=C(N3CC3)C2=O)cc(OC)c1OC [Compound 4-14]
half-life (physchem [1]): < 30 min

CC1=C(N2CC2)C(=O)C(COC(=O)c2ccc([N+](=O)[O-])cc2)=C(N2CC2)C1=O [Compound 4-20]
half-life (physchem [1]): 20 min

CC1=C(N2CC2)C(=O)C(COC(=O)C(C)C)=C(N2CC2)C1=O [Compound 4-36]
half-life (physchem [1]): < 30 min

CCC(=O)OCC1=C(N2CC2)C(=O)C(C)=C(N2CC2)C1=O [Compound 4-38]
half-life (physchem [1]): 20 min

CC1=C(N2CC2)C(=O)C(COC(=O)C(C)(C)C)=C(N2CC2)C1=O [Compound 4-39]
half-life (physchem [1]): < 30 min

CC1=C(N2CC2)C(=O)C(CCCO)=C(N2CC2)C1=O [Compound 4-61, 2,5-Bisaziridin-1-yl-3-(3-hydroxypropyl)-6-methyl-1,4-benzoquinone]
half-life at 50 μM (physchem [2]): > 1440 min | IC50 (MDA NQ01; Homo sapiens, MTT assay): 0.41 nM | DT diaphorase enhancement ratio (MDA NQ01; IC50 MDA 468 / IC50 MDA NQO1): 41 | selectivity towards cells that express DT-diaphorase (MDA NQ01; IC50 values, MTT assay): excellent selectivity | IC50 (MDA468; Homo sapiens): 17 nM | half-life at 50 μM (physchem [1]): > 1440 min

CC(=O)OCCC1=C(N2CC2)C(=O)C(C)=C(N2CC2)C1=O [Compound 4-70]
half-life (physchem [1]): < 60 min

CC1=C(N2CC2)C(=O)C(CCOC(=O)c2ccccc2)=C(N2CC2)C1=O [Compound 4-71]
half-life (physchem [1]): < 60 min

Nc1ccn([C@@H]2O[C@H](CO)[C@@H](O)[C@@H]2O)c(=O)n1 [Cytosine arabinoside (ARA-C), Cytosine arabinoside]
IC50 (MDA NQ01; MTT assay): 240 nM | IC50 (MDA468): 250 nM

CC(=O)O[C@@]12CO[C@@H]1C[C@H](O)[C@@]1(C)C(=O)[C@H](O)C3=C(C)[C@@H](OC(=O)[C@H](O)[C@@H](NC(=O)OC(C)(C)C)c4ccccc4)C[C@@](O)([C@@H](OC(=O)c4ccccc4)[C@H]21)C3(C)C [Docetaxel]
IC50 (MDA NQ01; Homo sapiens, MTT assay): 1.88 nM | IC50 (MDA468; Homo sapiens): 1.15 nM

COc1cccc2c1C(=O)c1c(O)c3c(c(O)c1C2=O)C[C@@](O)(C(=O)CO)C[C@@H]3O[C@H]1C[C@H](N)[C@H](O)[C@H](C)O1 [Doxorubicin, reference compound]
cell survival compared to the untreated control, H460, s.c. site (H460 NSCLC): did not demonstrate significant efficacy | cell survival compared to the untreated control, MDA-MB-468-NQ01, s.c. site (MDA-MB-468-NQ01; fibres at s.c. site, i.p. dosing days 3-6, nude mice): did not demonstrate significant efficacy | efficacy in the NQ01-expressing compared to the Mock MDA-MB-468 cell line (MDA-MB-468-NQ01; hollow fibre assay): little difference | cell survival compared to the untreated control, MDA-MB-468-MOCK, s.c. site (MDA-MB-468-MOCK): did not demonstrate significant efficacy

COc1cccc2c1C(=O)c1c(O)c3c(c(O)c1C2=O)C[C@@](O)(C(=O)CO)C[C@@H]3O[C@H]1C[C@H](N)[C@@H](O)[C@H](C)O1 [Epirubicin]
IC50 (MDA NQ01; Homo sapiens, MTT assay): 27.5 nM | IC50 (MDA468; Homo sapiens): 23.2 nM

CC1=C(N2CC2)C(=O)C(C)=C(N2CC2)C1=O [MeDZQ, 2,5-diaziridinyl-3,6-dimethyl-1,4-benzoquinone]
effectiveness as a substrate for recombinant human DTD relative to mitomycin C (recombinant human DTD): more than 150 fold

CN(Cc1cnc2nc(N)nc(N)c2n1)c1ccc(C(=O)N[C@@H](CCC(=O)O)C(=O)O)cc1 [Methotrexate]
IC50 (MDA NQ01; Homo sapiens, MTT assay): 27 nM | IC50 (MDA468; Homo sapiens): 45 nM

CO[C@@]12[C@H](COC(N)=O)C3=C(C(=O)C(C)=C(N)C3=O)N1C[C@@H]1N[C@@H]12 [Mitomycin C]
IC50 (MDA NQ01; MTT assay): 10 nM | MDA468 to NQ01 differential (MDA NQ01): ~5 fold | IC50 (MDA468): 50 nM

CC1=C(N2CC2)C(=O)C(CO)=C(N2CC2)C1=O [RH1, 2,5-diaziridiny 1-3-(hydroxymethyl)-6-methyl-1,4-benzoquinone]
Stability (aqueous) [3]: >7 days | Stability (organic) ([3]; in words): months | Temperature stability, t90 (Temperature stability; 4 C.): 4 C. t90 >7 days | Temperature stability, t90 (Temperature stability; 40 C.): 40 C. t90 2 days | Temperature stability, t1/2 (Temperature stability; 55 C.): 55 C. t1/2 2 days | Temperature stability, t90 (Temperature stability; Ambient): Ambient t90 3 days | pH stability, t1/2 ([4]; pH 4.16, from AAPS PharmSciTech 2007): t1/2 = 0.07 days | pH stability, t1/2 ([4]; pH 7.33, from AAPS PharmSciTech 2007): t1/2 = 43.52 days | pH stability, t1/2 ([4]; pH 9.82, nearest comparison from AAPS PharmSciTech 2007, 8 (1) Article 16): t1/2 = 0.96 days | Combination index at IC50 with ARA-C in NQ01 cells (NQ01 cells; with ARA-C): 1.22 (slight | Combination index at IC50 with Cis-platinum in MDA NQ01 (NQ01 cells; with Cis-platinum): 0.672 (synergy) | Combination index at IC50 with Docetaxel in NQ01 cells (NQ01 cells; with Docetaxel): 0.864 (slight | Combination index at IC50 with Epirubicin in NQ01 cells (NQ01 cells; with Epirubicin): 2.09 (antagonism) | Combination Index at IC50 with Mitomycin C in NQ01 cells (NQ01 cells; with Mitomycin C): 1.2 (slight | Combination index at IC50 with cobalt chloride in NQ01 cells (NQ01 cells; with cobalt chloride): 0.80 (moderate | IC50 (MDA NQ01; MTT assay): 0.12 nM | MDA468 to NQ01 differential (MDA NQ01): > 30 fold | IC50 (MDA468): 4.41 nM and 3.5 nM | Solubility (organic) ([5]; DMSO/chloroform): >30 mg/mL | Solubility (aqueous) ([5]; water): 0.5 mg/mL (water) (≈ 2.13 mM) | Combination index at IC50 with ARC-C in MDA468 cells (MDA468 cells; with ARC-C): 1.45 (slight | Combination index at IC50 with Cis-platinum in MDA468 (MDA468 cells; with Cis-platinum): 0.499 (synergy) | Combination index at IC50 with Docetaxel in MDA468 cells (MDA468 cells; with Docetaxel): 0.850 (slight | Combination index at IC50 with Epirubicin in MDA468 cells (MDA468 cells; with Epirubicin): 4.81 (strong | Combination Index at IC50 with Mitomycin C in MDA468 cells (MDA468 cells; with Mitomycin C): 0.577 (synergy) | Combination index at IC50 with cobalt chloride in MDA468 cells (MDA468 cells; with cobalt chloride): 0.170 (strong

CC[C@]1(O)C[C@@H]2CN(CCc3c([nH]c4ccccc34)[C@@](C(=O)OC)(c3cc4c(cc3OC)N(C)[C@H]3[C@@](O)(C(=O)OC)[C@H](OC(C)=O)[C@]5(CC)C=CCN6CC[C@]43[C@@H]65)C2)C1 [Vinblastine]
IC50 (MDA NQ01; Homo sapiens, MTT assay): 18.3 nM | IC50 (MDA468; Homo sapiens): 16 nM
